Results: ChEMBL document CHEMBL5226287, “Small organic molecules targeting the energy metabolism of Mycobacterium tuberculosis” (Eur J Med Chem, 2021)
In brackets after ≈: the same amount, converted by molar mass. Starred links: 1 amine or outer side, 2 acyl side, 3 side chain; linkers in the order of their positions; H or OH if unused. Non-standard residues stand in square brackets, D forms with d. Residues, ends and D or L forms follow the SMILES beside them. ξ: configuration not given here. *: point of attachment. X1 = CCC(=O)C[C@@H](O)C[C@@H](C)C[C@H](N[*:1])C(=O)[*:2]; Alaψ(CH2NMeCH2CH2OH) = C[C@@H](CN(C)CCO)N*; Decanoyl(2R-Me) = CCCCCCCC[C@@H](C)C(=O)*; Ile(3ξ) = CCC(C)[C@H](N)C(=O)O; ξβ3hP = O=C(O)CC1CCCN1; Aib = CC(C)(N)C(=O)O

Key:
Type in all cases: functional
[1] = system: Mycobacterium tuberculosis variant bovis; assay: Antimycobacterial activity against Mycobacterium bovis BCG ATCC 35737 at 50 uM by Luminescence assay
[2] = system: Mycobacterium tuberculosis variant bovis; assay: Antibacterial activity against Mycobacterium bovis BCG assessed as inhibition of bacterial growth by microdilution based analysis
[3] = system: Mycobacterium tuberculosis variant bovis; assay: Antimycobacterial activity against Mycobacterium bovis BCG assessed as reduction in bacterial growth incubated for 48 hrs by HT-SPOTi assay
[4] = system: Mycobacterium tuberculosis variant bovis; assay: Antibacterial activity against Mycobacterium bovis BCG assessed as complete inhibition of bacterial growth by Alamar Blue/Resazurin

`Cc1ccc(C(=O)N2CCOCC2)cc1Nc1nccn1-c1cc(NC2CC2)ncn1` showed an MIC [1] of 0.036 µM (≈ 0.0151 µg/mL).
`Cc1ccc2nc(C)c(C(=O)NCc3ccc(C(F)(F)F)cc3)n2c1` was tested, and the MIC [2] was 0.5 µM (≈ 0.174 µg/mL).
`CCCCCCCC[C@@H](C)C(=O)N1CCCC1CC(=O)N[C@@H](C[C@H](C)C[C@H](O)CC(=O)CC)C(=O)NC(C)(C)C(=O)NC(C)(C)C(=O)N[C@H](C(=O)N[C@H](C(=O)NC(C)(C)C(=O)NC(C)(C)C(=O)N[C@@H](C)CN(C)CCO)C(C)C)C(C)CC` (stereo partly drawn) ({Decanoyl(2R-Me)}-[ξβ3hP][X1][Aib][Aib][Ile(3ξ)]V[Aib][Aib]-{Alaψ(CH2NMeCH2CH2OH)}) gave an MIC50 [3] of 33 µM (≈ 38.9 µg/mL).
Work on `CCc1nc2ccc(Cl)cn2c1C(=O)NCc1ccc(N2CCC(c3ccc(OC(F)(F)F)cc3)CC2)cc1` [TELACEBEC] yielded an MIC90 [4] of 0.125 µg/mL (≈ 0.224 µM).
